Results reported in patent US11707479B2, “Combination formulation of two antiviral compounds” (priority 2013, dated 2023).
Read-outs that look alike come from different tables or passages of the source. Blank lines part the entries; values can stand above or below the compound they belong to.

How the values were obtained:
[1] = Food effect on Compound I solid dispersion as single agent; assay type: in vivo, human; conditions: Compound I 100 mg
[2] = Chemical stability in ethanolic feed solution; assay type: physicochemical
[3] = Single and multiple oral doses of Compound I: pharmacokinetics; conditions: human, in vivo
[4] = Spray dry feed solution solvent evaluation: solubility; assay type: physicochemical; conditions: Ethanol, methanol, acetone, and dichloromethane
Protocol: The feed solution was initially evaluated for appropriate solvent with regard to solubility, stability, and viscosity. […] Ethanol and methanol-based feed stocks were assessed for preparation ease and spray dried at a range of inlet and outlet temperatures to assess the robustness of the spray dry process. Both solvents gave rapid dissolution of Compound I and copovidone.

[5] = PK drug-drug interaction between SOF and Compound I; assay type: in vivo, human; conditions: for AUCinf % GLSM Ratio (SOF + Compound I/SOF) (90% CI) / AUClast % GLSM Ratio (SOF + Compound I/SOF) (90% CI) / Cmax % GLSM Ratio (SOF + Compound I/SOF) (90% CI): SOF 400 mg + Compound I 150 mg vs SOF 400 mg
genotype 1-6 HCV = experiment: Compound I 3-day monotherapy study; assay type: in vivo, Hepatitis C virus
[6] = Sofosbuvir single dose exposure, 200 mg tablets; assay type: in vivo, human; conditions: single doses up to 1200 mg
Protocol: (§1) The mean sofosbuvir major metabolite AUCtau for the 400 mg sofosbuvir dose is associated with approximately 77% of the maximal HCV RNA change from baseline achievable as determined by this model, a value which is on the cusp of the plateau of the exposure-response sigmoidal curve. In a sigmoidal Emax model, there is a relatively linear exposure-response relationship in the 20 to 80% maximal effect range. Therefore, given that sofosbuvir exposure with 200 mg tablets appears dose-proportional with single doses up to 1200 mg, doses below 400 mg are expected to yield considerable reductions in the magnitude of HCV RNA change from baseline.

genotype 2 or 3 HCV = experiment: Sofosbuvir 400 mg once daily plus other HCV therapeutics, SVR24; assay type: in vivo, Hepatitis C virus; conditions: genotype 2 or 3 HCV infected patients
Protocol: (§2) Safety and tolerability appeared similar across both dose levels. In addition, when sofosbuvir 400 mg once daily plus other HCV therapeutics were given to genotype 2 or 3 HCV infected patients, 100% SVR24 was observed.

genotype 1 HCV = experiment: Sofosbuvir 400 mg vs 200 mg once daily with additional HCV therapeutics for 24 weeks; assay type: in vivo, Hepatitis C virus
Protocol: as §2

HCV RNA = experiment: Emax PK/PD modeling of sofosbuvir dose; parameters: species or system Hepatitis C virus; conditions: 400 mg sofosbuvir dose, Emax model
Protocol: The sofosbuvir dose selected for the tablet formulation is 400 mg once daily. Support for the 400 mg sofosbuvir dose can be derived from Emax PK/PD modeling with early virological and human exposure data which also supports the selection of a 400 mg sofosbuvir dose over others tested.
as §1

[7] = SOF 400 mg + Compound I 150 mg vs Compound I 150 mg
[8] = SOF 400 mg + Compound I 150 mg, GLSM
[9] = SOF 400 mg single dose alone, GLSM
[10] = human, in vivo, SOF 400 mg + Compound I 150 mg, GLSM

SMILES: COC[C@H]1C[C@@H](c2ncc(-c3ccc4c(c3)COc3cc5c(ccc6nc([C@@H]7CC[C@H](C)N7C(=O)[C@@H](NC(=O)OC)C(C)C)[nH]c65)cc3-4)[nH]2)N(C(=O)[C@H](NC(=O)OC)c2ccccc2)C1 [Compound I, methyl {(2S)-1-[(2S,5S)-2-(9-{2-[(2S,4S)-1-{(2R)-2-[(methoxycarbonyl)amino]-2-phenylacetyl}-4-(methoxymethyl)pyrrolidin-2-yl]-1H-imidazol-5-yl}-1,11-dihydroisochromeno[4′,3′ 6,7]naphtho[1,2-d]imidazol-2-yl)-5-methylpyrrolidin-1-yl]-3-methyl-1-oxobutan-2-yl}carbamate]
- AUCinf % GLSM Ratio (Fed/Fasted) ([1]; HFM): 86.30%
- AUClast % GLSM Ratio (Fed/Fasted) ([1]; HFM): 86.02%
- Cmax % GLSM Ratio (Fed/Fasted) ([1]; HFM): 75.02%
- AUCinf % GLSM Ratio (Fed/Fasted) ([1]; Light Breakfast): 124.72%
- AUClast % GLSM Ratio (Fed/Fasted) ([1]; Light Breakfast): 124.84%
- Cmax % GLSM Ratio (Fed/Fasted) ([1]; Light Breakfast): 134.89%
- chemical stability [2]: good chemical stability
- CL/F ([3]; 5 mg): 58,398.0 mL/h
- CL/F ([3]; 50 mg): 19,188.4 mL/h
- CL/F ([3]; 100 mg): 24,617.9 mL/h
- CL/F ([3]; 450 mg): 53,676.4 mL/h
- solubility in feed solvent [4]: excellent solubility
- Ctau ([5]; Compound I 150 mg multiple doses alone, GLSM): 101.09 ng/mL
- AUCtau % GLSM Ratio (SOF + Compound I/Compound I) (90% CI) [5, 7]: 111.71 (107.54, 116.04) %
- Cmax % GLSM Ratio (SOF + Compound I/Compound I) (90% CI) [5, 7]: 105.94 (101.86, 110.20) %
- Ctau % GLSM Ratio (SOF + Compound I/Compound I) (90% CI) [5, 7]: 117.61 (111.94, 123.57) %
- Ctau [5, 8]: 118.90 ng/mL
- AUC ([5]; human, plasma, oral, Compound I 150 mg multiple doses alone, GLSM): 7280 ng·h/mL
- Cmax ([5]; human, plasma, oral, Compound I 150 mg multiple doses alone, GLSM, read-out: Cmax): 932 ng/mL
- AUC ([5]; human, plasma, oral, SOF 400 mg + Compound I 150 mg, GLSM): 8140 ng·h/mL
- Cmax ([5]; human, plasma, oral, SOF 400 mg + Compound I 150 mg, GLSM, read-out: Cmax): 988 ng/mL
- activity against genotype 1-6 HCV (genotype 1-6 HCV): potent activity

- AUCinf % GLSM Ratio (SOF + Compound I/SOF) (90% CI) [5]: 179.42 (165.03, 195.06) %
- AUClast % GLSM Ratio (SOF + Compound I/SOF) (90% CI) [5]: 182.35 (167.52, 198.50) %
- Cmax % GLSM Ratio (SOF + Compound I/SOF) (90% CI) [5]: 161.68 (145.27, 179.94) %
- AUCinf [5, 8]: 3455.70 ng·h/mL
- AUClast [5, 8]: 3394.32 ng·h/mL
- Cmax [5, 8]: 736.88 ng/mL
- AUCinf [5, 9]: 1926.09 ng·h/mL
- AUClast [5, 9]: 1861.41 ng·h/mL
- Cmax [5, 9]: 455.77 ng/mL
- increase in AUC when SOF coadministered with Compound I [5]: approximately 1.8 fold
- increase in Cmax when SOF coadministered with Compound I [5]: approximately 1.6 fold
SMILES: C[C@H](NP(=O)(O)OC[C@H]1O[C@@H](n2ccc(=O)[nH]c2=O)[C@](C)(F)[C@@H]1O)C(=O)O [SOF metabolite I]

SMILES: CC(C)OC(=O)[C@H](C)N[P@](=O)(OC[C@H]1O[C@@H](n2ccc(=O)[nH]c2=O)[C@](C)(F)[C@@H]1O)Oc1ccccc1 [sofosbuvir, (S)-isopropyl 2-(((S)-(((2R,3R,4R,5R)-5-(2,4-dioxo-3,4-dihydropyrimidin-1(2H)-yl)-4-fluoro-3-hydroxy-4-methyltetrahydrofuran-2-yl)methoxy)(phenoxy)phosphoryl)amino)propanoate, reference compound]
- dose proportionality of exposure [6]: dose-proportional
- SVR24 (genotype 2 or 3 HCV): 100%
- AUCinf % GLSM Ratio (SOF + Compound I/SOF) (90% CI) [5]: 237.77 (214.27, 263.85) %
- AUClast % GLSM Ratio (SOF + Compound I/SOF) (90% CI) [5]: 238.10 (214.62, 264.16) %
- Cmax % GLSM Ratio (SOF + Compound I/SOF) (90% CI) [5]: 181.06 (149.43, 219.38) %
- AUCinf [5, 9]: 1159.50 ng·h/mL
- increase in AUC when SOF coadministered with Compound I [5]: ~2.4 fold
- increase in Cmax when SOF coadministered with Compound I [5]: approximately 1.8 fold
- AUC(0-inf) [5, 10]: 2760 ng·h/mL
- AUC(0-t) [5, 10]: 2750 ng·h/mL
- Cmax ([5]; human, in vivo, SOF 400 mg + Compound I 150 mg, GLSM, read-out: Cmax): 1590 ng/mL
- AUC(0-t) ([5]; human, in vivo, SOF 400 mg single dose alone, GLSM): 1150 ng·h/mL
- Cmax ([5]; human, in vivo, SOF 400 mg single dose alone, GLSM, read-out: Cmax): 880 ng/mL
- Safety and tolerability across both dose levels (genotype 1 HCV; 400 mg vs 200 mg once daily): similar
- SVR rates, 400 mg once daily compared to 200 mg once daily (genotype 1 HCV; genotype 1 HCV infected patients, with additional HCV therapeutics for 24 weeks): higher SVR rates
- fraction of the maximal HCV RNA change from baseline achievable, associated with mean major metabolite AUCtau (HCV RNA): approximately 77%

- AUCinf % GLSM Ratio (SOF + Compound I/SOF) (90% CI) [5]: 116.32 (110.99, 121.90) %
- AUClast % GLSM Ratio (SOF + Compound I/SOF) (90% CI) [5]: 112.86 (107.90, 118.05) %
- Cmax % GLSM Ratio (SOF + Compound I/SOF) (90% CI) [5]: 64.17 (58.45, 70.44) %
- AUCinf [5, 8]: 13,774.96 ng · h/mL
- AUClast [5, 8]: 12,610.86 ng · h/mL
- Cmax [5, 8]: 693.62 ng/mL
- AUCinf [5, 9]: 11,842.52 ng · h/mL
- AUClast [5, 9]: 11,173.87 ng · h/mL
- Cmax [5, 9]: 1080.97 ng/mL
SMILES: C[C@@]1(F)[C@H](O)[C@@H](CO)O[C@H]1n1ccc(=O)[nH]c1=O [SOF metabolite II]
